Measurements as given in patent US7998978B2 (Pfizer Inc., priority 2006, dated 2011).

Biological target: T1, JNK1α1 (Homo sapiens, UniProt P45983)
T1 construct: catalytic domain containing amino acids 1-364 and N-terminal hexahistidine tag; hexahistidine (His6) (N); made in house; host or cells: E. coli BL21 (DE3)
Experiment: Coupled spectrophotometric (PK/LDH) JNK1α1 assay: % inhibition and Ki determination
Assay type: biochemical
Conditions: JNK-1
Summary of the method: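 Initial rates were taken from the absorbance decrease at 340 nm at 30° C. Ki was fitted with a tight-binding model over 11 concentrations (top 100 μM); single-point inhibition was tested at 1 or 10 μM.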

T1 sequence (P45983 1-364): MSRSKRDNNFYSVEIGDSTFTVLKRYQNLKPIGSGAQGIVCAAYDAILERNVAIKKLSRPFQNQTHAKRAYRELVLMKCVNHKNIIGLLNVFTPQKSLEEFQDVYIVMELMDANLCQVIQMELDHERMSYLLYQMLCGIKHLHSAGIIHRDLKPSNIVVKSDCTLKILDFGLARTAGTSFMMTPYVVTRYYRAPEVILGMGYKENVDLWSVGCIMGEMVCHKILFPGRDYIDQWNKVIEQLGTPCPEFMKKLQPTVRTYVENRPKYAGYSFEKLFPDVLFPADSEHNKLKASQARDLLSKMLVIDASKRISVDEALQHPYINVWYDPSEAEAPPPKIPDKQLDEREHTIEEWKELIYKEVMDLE

| SMILES | Ki |
| --- | --- |
| CC(=O)N[C@H]1CC[C@H](Nc2ncc3cccc(C(=O)NCC(C)(C)O)c3n2)CC1 [Example 135, 2-{[trans-4-(acetylamino)cyclohexyl]amino}-N-(2-hydroxy-2-methylpropyl)quinazoline-8-carboxamide] | 300 nM |
| O[C@H]1CC[C@H](Nc2ncc3ccc(F)cc3n2)CC1 [Example 143, trans-4-[(7-fluoroquinazolin-2-yl)amino]cyclohexanol] | 337 nM |
| O[C@H]1CC[C@H](Nc2ncc3ccc(OC4CCOC4)cc3n2)CC1 (stereo partly drawn) [Example 144, trans-4-{[7-(tetrahydrofuran-3-yloxy)quinazolin-2-yl]amino}cyclohexanol] | 127 nM |
| COc1ccc2cnc(N[C@H]3CC[C@H](O)CC3)nc2c1 [Example 145, trans-4-[(7-methoxyquinazolin-2-yl)amino]cyclohexanol] | 123 nM |
| Oc1ccc2cnc(N[C@H]3CC[C@H](O)CC3)nc2c1 [Example 146, 2-[(trans-4-hydroxycyclohexyl)amino]quinazolin-7-ol] | 178 nM |
| c1ccc2nc(NC3CCCCC3)ncc2c1 [Example 147] | 460 nM |
| Fc1ccc2cnc(NC3CCCCC3)nc2c1 [Example 148] | 456 nM |
| COc1cccc2cnc(NC3CCCCC3)nc12 [Example 149] | 485 nM |
| COc1cccc2cnc(N[C@H]3CC[C@H](O)CC3)nc12 [Example 150] | 359 nM |
| O[C@H]1CC[C@H](Nc2ncc3ccccc3n2)CC1 [Example 151, trans-4-(quinazolin-2-ylamino)cyclohexanol] | 432 nM |
| Oc1cccc2cnc(N[C@H]3CC[C@H](O)CC3)nc12 [Example 152, 2-[(trans-4-hydroxycyclohexyl)amino]quinazolin-8-ol] | 420 nM |
| O[C@H]1CC[C@H](Nc2ncc3ccc(OCc4ccccn4)cc3n2)CC1 [Example 153, trans-4-{[7-(pyridin-2-ylmethoxy)quinazolin-2-yl]amino}cyclohexanol] | 185 nM |
| O[C@H]1CC[C@H](Nc2ncc3ccc(OCCN4CCOCC4)cc3n2)CC1 [Example 154, trans-4-{[7-(2-morpholin-4-ylethoxy)quinazolin-2-yl]amino}cyclohexanol] | 403 nM |
| O[C@H]1CC[C@H](Nc2ncc3ccc(OCC4CCOC4)cc3n2)CC1 (stereo partly drawn) [Example 155, trans-4-{[7-(tetrahydrofuran-3-ylmethoxy)quinazolin-2-yl]amino}cyclohexanol] | 156 nM |
| CN1CCC(COc2ccc3cnc(N[C@H]4CC[C@H](O)CC4)nc3c2)CC1 [Example 156, trans-4-({7-[(1-methylpiperidin-4-yl)methoxy]quinazolin-2-yl}amino)cyclohexanol] | 988 nM |
| CN(C)CCOc1ccc2cnc(N[C@H]3CC[C@H](O)CC3)nc2c1 [Example 157, trans-4-({7-[2-(dimethylamino)ethoxy]quinazolin-2-yl}amino)cyclohexanol] | 1780 nM |
| O[C@H]1CC[C@H](Nc2ncc3ccc(OCC4CCOCC4)cc3n2)CC1 [Example 158, trans-4-{[7-(tetrahydro-2H-pyran-4-ylmethoxy)quinazolin-2-yl]amino}cyclohexanol] | 201 nM |
| O[C@H]1CC[C@H](Nc2ncc3ccc(O[C@@H]4CCOC4)cc3n2)CC1 [Example 159, trans-4-({7-[(3R)-tetrahydrofuran-3-yloxy]quinazolin-2-yl}amino)cyclohexanol] | 190 nM |
| O[C@H]1CC[C@H](Nc2ncc3ccc(O[C@H]4CCOC4)cc3n2)CC1 [Example 160, trans-4-({7-[(3S)-tetrahydrofuran-3-yloxy]quinazolin-2-yl}amino)cyclohexanol] | 70 nM |
| O[C@H]1CC[C@H](Nc2ncc3ccc(Oc4ccccc4)cc3n2)CC1 [Example 161, trans-4-[(7-phenoxyquinazolin-2-yl)amino]cyclohexanol] | 111 nM |
| CS(=O)(=O)N[C@H]1CC[C@H](Nc2ncc3ccc(OC4CCOC4)cc3n2)CC1 (stereo partly drawn) [Example 162, N-(trans-4-{[7-(tetrahydrofuran-3-yloxy)quinazolin-2-yl]amino}cyclohexyl)methanesulfonamide] | 260 nM |
| c1cc2cnc(NC3CCOCC3)nc2cc1O[C@H]1CCOC1 [Example 163, 7-[(3S)-tetrahydrofuran-3-yloxy]-N-(tetrahydro-2H-pyran-4-yl)quinazolin-2-amine] | 1740 nM |
| CC(=O)N[C@H]1CC[C@H](Nc2ncc3ccc(OC4CCOC4)cc3n2)CC1 (stereo partly drawn) [Example 164, N-(trans-4-{[7-(tetrahydrofuran-3-yloxy)quinazolin-2-yl]amino}cyclohexyl)acetamide] | 416 nM |

| SMILES | Ki |
| --- | --- |
| O=S(=O)(N[C@H]1CC[C@H](Nc2ncc3ccc(OC4CCOC4)cc3n2)CC1)c1ccccc1 (stereo partly drawn) [Example 165, N-(trans-4-{[7-(tetrahydrofuran-3-yloxy)quinazolin-2-yl]amino}cyclohexyl)benzenesulfonamide] | 153 nM |
| O[C@H]1CC[C@H](Nc2ncc3cccc(OCC4CCCCO4)c3n2)CC1 (stereo partly drawn) [Example 166, trans-4-{[8-(tetrahydro-2H-pyran-2-ylmethoxy)quinazolin-2-yl]amino}cyclohexanol] | 296 nM |
| O[C@H]1CC[C@H](Nc2ncc3cccc(O[C@@H]4CCOC4)c3n2)CC1 [Example 167, trans-4-({8-[(3R)-tetrahydrofuran-3-yloxy]quinazolin-2-yl}amino)cyclohexanol] | 644 nM |
| O[C@H]1CC[C@H](Nc2ncc3cccc(O[C@H]4CCOC4)c3n2)CC1 [Example 168, trans-4-({8-[(3S)-tetrahydrofuran-3-yloxy]quinazolin-2-yl}amino)cyclohexanol] | 574 nM |
| O[C@H]1CC[C@H](Nc2ncc3cccc(OC4CCOCC4)c3n2)CC1 [Example 169, trans-4-{[8-(tetrahydro-2H-pyran-4-yloxy)quinazolin-2-yl]amino}cyclohexanol] | 231 nM |
| CC(C)Nc1ncc2cccc(OC3CCOCC3)c2n1 [Example 170, N-isopropyl-8-(tetrahydro-2H-pyran-4-yloxy)quinazolin-2-amine] | 2150 nM |
| O[C@H]1CC[C@H](Nc2ncc3cccc(OC4CCOC4)c3n2)CC1 (stereo partly drawn) [Example 171, trans-4-{[8-(tetrahydrofuran-3-yloxy)quinazolin-2-yl]amino}cyclohexanol] | 483 nM |
| CC(C)Nc1ncc2cccc(OC3CCOC3)c2n1 (stereo not shown) [Example 172, N-isopropyl-8-(tetrahydrofuran-3-yloxy)quinazolin-2-amine] | 3570 nM |
| c1cc(OC2CCOC2)c2nc(NC3CCOCC3)ncc2c1 (stereo not shown) [Example 173, 8-(tetrahydrofuran-3-yloxy)-N-(tetrahydro-2H-pyran-4-yl)quinazolin-2-amine] | 1910 nM |
| FC1(F)CCC(Nc2ncc3cccc(OC4CCOC4)c3n2)CC1 (stereo not shown) [Example 174, N-(4,4-difluorocyclohexyl)-8-(tetrahydrofuran-3-yloxy)quinazolin-2-amine] | 999 nM |
| c1cc(OC2CCOCC2)c2nc(NC3CCOCC3)ncc2c1 [Example 175, N-(tetrahydro-2H-pyran-4-yl)-8-(tetrahydro-2H-pyran-4-yloxy)quinazolin-2-amine] | 880 nM |
| FC1(F)CCC(Nc2ncc3cccc(OC4CCOCC4)c3n2)CC1 [Example 176, N-(4,4-difluorocyclohexyl)-8-(tetrahydro-2H-pyran-4-yloxy)quinazolin-2-amine] | 422 nM |
| N[C@H]1CC[C@H](Nc2ncc3cccc(OC4CCOC4)c3n2)CC1 (stereo partly drawn) [Example 177, trans-N-[8-(tetrahydrofuran-3-yloxy)quinazolin-2-yl]cyclohexane-1,4-diamine] | 914 nM |
| N[C@H]1CC[C@H](Nc2ncc3cccc(OC4CCOCC4)c3n2)CC1 [Example 178, trans-N-[8-(tetrahydro-2H-pyran-4-yloxy)quinazolin-2-yl]cyclohexane-1,4-diamine] | 744 nM |
| CC(=O)N[C@H]1CC[C@H](Nc2ncc3cccc(OC4CCOCC4)c3n2)CC1 [Example 179, N-(trans-4-{[8-(tetrahydro-2H-pyran-4-yloxy)quinazolin-2-yl]amino}cyclohexyl)acetamide] | 665 nM |
| CCC(=O)N[C@H]1CC[C@H](Nc2ncc3cccc(OC4CCOCC4)c3n2)CC1 [Example 180, N-(trans-4-{[8-(tetrahydro-2H-pyran-4-yloxy)quinazolin-2-yl]amino}cyclohexyl)propanamide] | 570 nM |
| CC(C)C(=O)N[C@H]1CC[C@H](Nc2ncc3cccc(OC4CCOCC4)c3n2)CC1 [Example 181, 2-methyl-N-(trans-4-{[8-(tetrahydro-2H-pyran-4-yloxy)quinazolin-2-yl]amino}cyclohexyl)propanamide] | 780 nM |
| CS(=O)(=O)N[C@H]1CC[C@H](Nc2ncc3cccc(OC4CCOCC4)c3n2)CC1 [Example 182, N-(trans-4-{[8-(tetrahydro-2H-pyran-4-yloxy)quinazolin-2-yl]amino}cyclohexyl)methanesulfonamide] | 146 nM |
| CCS(=O)(=O)N[C@H]1CC[C@H](Nc2ncc3cccc(OC4CCOCC4)c3n2)CC1 [Example 183, N-(trans-4-{[8-(tetrahydro-2H-pyran-4-yloxy)quinazolin-2-yl]amino}cyclohexyl)ethanesulfonamide] | 220 nM |
| CC(=O)N[C@H]1CC[C@H](Nc2ncc3cccc(OC4CCOC4)c3n2)CC1 (stereo partly drawn) [Example 184, N-(trans-4-{[8-(tetrahydrofuran-3-yloxy)quinazolin-2-yl]amino}cyclohexyl)acetamide] | 674 nM |
| CCC(=O)N[C@H]1CC[C@H](Nc2ncc3cccc(OC4CCOC4)c3n2)CC1 (stereo partly drawn) [Example 185, N-(trans-4-{[8-(tetrahydrofuran-3-yloxy)quinazolin-2-yl]amino}cyclohexyl)propanamide] | 885 nM |
| CC(C)C(=O)N[C@H]1CC[C@H](Nc2ncc3cccc(OC4CCOC4)c3n2)CC1 (stereo partly drawn) [Example 186, 2-methyl-N-(trans-4-{[8-(tetrahydrofuran-3-yloxy)quinazolin-2-yl]amino)cyclohexyl)propanamide] | 607 nM |
| CS(=O)(=O)N[C@H]1CC[C@H](Nc2ncc3cccc(OC4CCOC4)c3n2)CC1 (stereo partly drawn) [Example 187, N-(trans-4-{[8-(tetrahydrofuran-3-yloxy)quinazolin-2-yl]amino}cyclohexyl)methanesulfonamide] | 414 nM |
